Laboratory results reported in patent EP0882010B1, “PHARMACEUTICAL AGENTS CONTAINING PERFLUOROALKYL-CONTAINING METAL COMPLEXES AND THE USE THEREOF IN TUMOUR THERAPY AND INTERVENTIONAL RADIOLOGY” (SCHERING AKTIENGESELLSCHAFT, priority 1996, dated 1997).

What was measured:
[1] = T1 relaxivity at 20 MHz, 37°C; format: physicochemical
Method: c) Gadolinium-Komplex von 10-[2-Hydroxy-4-aza-5-oxo-7-aza-7-(perfluoroctylsulfonyl)-nonyl]-1,4,7-tris(carboxymethyl)-1,4,7,10-tetraazacyclododecan 10 g (17,09 mmol) der Titelverbindung aus Beispiel 1b) und […] (18,79 mmol) N-Hydroxysuccinimid werden in einer Mischung aus 50 ml Dimethylformamid/50 ml Chloroform gelöst. Bei 0°C gibt man 3,88 g (18,79 mmol) Dicyclohexylcarbodiimid zu und rührt 1 Stunde bei 0°C, anschließend 3 Stunden bei Raumtemperatur. Man kühlt erneut auf 0°C und gibt 5,19 g (51,27 mmol) Triethylamin/50 ml 2-Propanol zu. Anschließend werden 10,78 g (18,79 mmol) Gadolinium-Komplex von 10-(3-Amino-2-hydroxy-propyl)-1,4,7-tris(carboxymethyl)-1,4,7,10-tetraazacyclododecan (WO 95/17451) gelöst in 50 ml Wasser zugegeben und 3 Stunden bei Raumtemperatur gerührt. Man dampft zur Trockne ein, nimmt den Rückstand in einer Mischung aus 200 ml Methanol/100 ml Chloroform auf und filtriert vom Dicyclohexylharnstoff ab. Das Filtrat wird zur Trockne eingedampft und durch RP-Chromatographie gereinigt (RP-18/Laufmittel: Gradient aus Wasser/n-Propanol/ Acetonitril). Ausbeute: 16,37 g (78 % d. Th.) eines farblosen glasigen Feststoffes Wassergehalt: 7,1 % T1-Relaxivität (L/mmol·sec) bei 20 MHz, 37°C: 41 (Wasser) 49 (Humanplasma)
e) Mangan-Komplex von 10-[2-Hydroxy-4-aza-5-oxo-7-aza-7-(perfluoroctylsulfonyl)-nonyl]-1,4,7-tris(carboxymethyl)-1,4,7,10-tetraazacyclododecan (als Natriumsalz) 5 g (5,07 mmol) der Titelverbindung aus Beispiel ld) werden in 100 ml Wasser gelöst und 0,58 g (5,07 mmol) Mangan(II) -carbonat zugegeben. Man rührt3 Stunden bei 80°C. Die Lösung wird filtriert und das Filtrat mit 1 N Natronlauge auf pH 7,2 gestellt, anschließend wird gefriergetrocknet. Ausbeute: 5,87 g (quantitativ) eines farblosen amorphen Pulvers Wassergehalt: 8,4 % T1-Relaxivität (L/mmol·sec) bei 20 MHz, 37°C: 2,7 (Wasser) 4,2 (Humanplasma)
c) Gadolinium-Komplex von 10-[2-Hydroxy-4-aza-5-oxo-7-oxa-10,10,11,11,12,12,13,13,14,14,15,15,16,16,17,17,17-heptadecafluor-heptadecyl]-1,4,7-tris(carboxymethyl)-1,4,7,10-tetraazacyclododecan 7,0 g (13,41 mmol) der Titelverbindung aus Beispiel 2b) und 1,70 g (14,75 mmol) N-Hydroxysuccinimid werden in einer Mischung aus 30 ml Dimethylformamid/ 20 ml Chloroform gelöst. Bei 0°C gibt man 3,04 g (14,75 mmol) Dicyclohexylcarbodiimid zu und rührt 1 Stunde bei 0°C, anschließend 3 Stunden bei Raumtemperatur. Man kühlt erneut auf 0°C und gibt 4,48 g (44,25 mmol) Triethylamin/50 ml 2-Propanol zu. Anschließend werden 8,46 g (14,75 mmol) Gadolinium-Komplex von 10-(3-Amino-2-hydroxy-propyl)-1,4,7-tris(carboxymethyl)-1,4,7,10-tetraazacyclododecan gelöst in 40 ml Wasser zugegeben und 3 Stunden bei Raumtemperatur gerührt. Man dampft zur Trockne ein, nimmt den Rückstand in einer Mischung aus 100 ml Methanol/30 ml Chloroform auf und filtriert vom Dicyclohexylharnstoff ab. Das Filtrat wird zur Trockne eingedampft und durch RP-Chromatographie gereinigt (RP-18/Laufmittel: Gradient aus Wasser/n-Propanol/Acetonitril). Ausbeute: 11,8 g (75 % d. Th.) eines farblosen glasigen Feststoffes Wassergehalt: 8,2 % T1-Relaxivität (L/mmol·sec) bei 20 MHz, 37°C: 19 (Wasser) 33 (Humanplasma)
c) Gadolinium-Komplex von 10-[-2Hydroxy-4-oxa-1H,1H,2H,3H,3H,5H,5H,6H,6H-perfluor-tetradecyl]-1,4,7-tris(carboxymethyl)-1,4,7,10-tetraazacyclododecan 10 g (11,54 mmol) der Titelverbindung aus Beispiel 3b) werden in einer Mischung aus 100 ml Wasser/50 ml 2-Propanol gelöst und 2,09 g (5,77 mmol) Gadoliniumoxid zugegeben. Man rührt 3 Stunden bei 80°C. Die Lösung wird filtriert und im Vakuum zur Trockne eingedampft. Ausbeute: 12,48 g (quantitativ) eines glasigen Feststoffes Wassergehalt: 5,6 % T1-Relaxivität (L/mmol·sec) bei 20 MHz, 37°C: 15,2 (Wasser) 27,5 (Humanplasma)

[2] = gut löslich at this concentration, free-flowing solution

CCN(CCCCCCCCCCC(=O)NCC(O)CN1CCN(CC(=O)[O-])CCN(CC(=O)[O-])CCN(CC(=O)[O-])CC1)S(=O)(=O)C(F)(F)C(F)(F)C(F)(F)C(F)(F)C(F)(F)C(F)(F)C(F)(F)C(F)(F)F.[Dy+3] (stereo not shown) [Beispiel 30f)]
Applizierbarkeit der Lösung (100 mmol/L in water, by hand or infusion pump through a 20 cm, 0.58 mm Øi tube at 160 µL/min): problemlos
Konsistenz der Lösung (100 mmol/L solution in water): klar durchsichtig und besitzt eine gelartig feste Konsistenz
Konsistenz mit Zusatz von Harnstoff (8 mol/L Harnstoff (final), also at substance concentration 400 mmol/L): frei fließende Lösung
Löslichkeit in 96% Ethanol (96% Ethanol, free-flowing solution): > 500 mmol/L
Löslichkeit in Rinderplasma (Rinderplasma, solution of comparable consistency): ebenso löslich wie in reinem Wasser
Einfluß auf die Konsistenz der Zubereitung (addition of 10 mmol/L HCl or NaOH, or 3 mol/L NaCl): keinen Einfluß auf die Konsistenz
Veränderung der Konsistenz durch Triton X-100 (aqueous formulation, Triton X-100, 1.7%): Verflüssigung der gelartigen Konsistenz
Veränderung der Konsistenz durch Tween 80 (aqueous formulation, Tween 80, 4.6% final concentration): keine Veränderung der Konsistenz
Löslichkeit in 66% DMSO/Wasser [2]: ≥ 150 mmol/L
Löslichkeit in 66% Propylenglycol/Wasser [2]: ≥ 250 mmol/L
concentration below which a frei fließende Lösung results (in water, printed as 'Unterhalb von etwa'): 10000 to 20000 µM
Löslichkeit in reinem DMSO (pure DMSO): praktisch unlöslich
Löslichkeit in reinem Propylenglycol (pure Propylenglycol): praktisch unlöslich

CCN(CC(=O)NCC(O)CN1CCN(CC(=O)[O-])CCN(CC(=O)[O-])CCN(CC(=O)[O-])CC1)S(=O)(=O)C(F)(F)C(F)(F)C(F)(F)C(F)(F)C(F)(F)C(F)(F)C(F)(F)C(F)(F)F.[Mn+2].[Na+] (stereo not shown) [Beispiel 1e), Mangan-Komplex von 10-[2-Hydroxy-4-aza-5-oxo-7-aza-7-(perfluoroctylsulfonyl)-nonyl]-1,4,7-tris(carboxymethyl)-1,4,7,10-tetraazacyclododecan (als Natriumsalz)]
T1-Relaxivität ([1]; Humanplasma): 4,2 L/mmol·sec
T1-Relaxivität ([1]; Wasser): 2,7 L/mmol·sec

O=C([O-])CN1CCN(CC(=O)[O-])CCN(CC(O)CNC(=O)COCCC(F)(F)C(F)(F)C(F)(F)C(F)(F)C(F)(F)C(F)(F)C(F)(F)C(F)(F)F)CCN(CC(=O)[O-])CC1.[Gd+3] (stereo not shown) [2c), Gadolinium-Komplex von 10-[2-Hydroxy-4-aza-5-oxo-7-oxa-10,10,11,11,12,12,13,13,14,14,15,15,16,16,17,17,17-heptadecafluor-heptadecyl]-1,4,7-tris(carboxymethyl)-1,4,7,10-tetraazacyclododecan]
T1-Relaxivität ([1]; Humanplasma): 33 L/mmol/s
T1-Relaxivität ([1]; Wasser): 19 L/mmol/s

O=C([O-])CN1CCN(CC(=O)[O-])CCN(CC(O)COCCC(F)(F)C(F)(F)C(F)(F)C(F)(F)C(F)(F)C(F)(F)C(F)(F)C(F)(F)F)CCN(CC(=O)[O-])CC1.[Gd+3] (stereo not shown) [3c), Gadolinium-Komplex von 10-[-2Hydroxy-4-oxa-1H,1H,2H,3H,3H,5H,5H,6H,6H-perfluor-tetradecyl]-1,4,7-tris(carboxymethyl)-1,4,7,10-tetraazacyclododecan]
T1-Relaxivität ([1]; Humanplasma): 27,5 L/mmol·sec
T1-Relaxivität ([1]; Wasser): 15,2 L/mmol·sec
